Assay results from patent US6096930A, “Herbicidal cyclohexane-1,3-dione derivatives and their preparation process” (Korea Research Institute of Chemical Technology, priority 1994, dated 2000).
Like-named read-outs stand apart in the source and are kept apart here.

Key:
Experiment in all cases: Herbicidal activity for paddy test
Type in all cases: in vivo
[1] = system: ORYSA; details: for plant injury at 2 g/ha: 0.002 kg/ha; for plant injury at 8 g/ha: 0.008 kg/ha; for plant injury at 31 g/ha: 0.031 kg/ha; for plant injury at 125 g/ha: 0.125 kg/ha; for plant injury at 500 g/ha: 0.500 kg/ha
Source text: (§1) The sterilized sandy loam soil is filled in test pot having a surface area of 348 cm^2 for upland test conditions or 115 cm^2 for paddy test species were planted in furrows.
(§2) The herbicidal activity data were taken visually by percent control, wherein 0 signifies no herbicidal effect and 100 signifies complete kill.

[2] = system: ECHOR; details: for pest or weed control at 2 g/ha: 0.002 kg/ha; for pest or weed control at 8 g/ha: 0.008 kg/ha; for pest or weed control at 31 g/ha: 0.031 kg/ha; for pest or weed control at 125 g/ha: 0.125 kg/ha; for pest or weed control at 500 g/ha: 0.500 kg/ha
Source text: as §1, §2

[3] = system: SCPJU; details: for pest or weed control at 2 g/ha: 0.002 kg/ha; for pest or weed control at 8 g/ha: 0.008 kg/ha; for pest or weed control at 31 g/ha: 0.031 kg/ha; for pest or weed control at 125 g/ha: 0.125 kg/ha; for pest or weed control at 500 g/ha: 0.500 kg/ha
Source text: as §1, §2

[4] = system: MOOVA; details: for pest or weed control at 2 g/ha: 0.002 kg/ha; for pest or weed control at 8 g/ha: 0.008 kg/ha; for pest or weed control at 31 g/ha: 0.031 kg/ha; for pest or weed control at 125 g/ha: 0.125 kg/ha; for pest or weed control at 500 g/ha: 0.500 kg/ha
Source text: as §1, §2

[5] = system: SAGPY; details: for pest or weed control at 2 g/ha: 0.002 kg/ha; for pest or weed control at 8 g/ha: 0.008 kg/ha; for pest or weed control at 31 g/ha: 0.031 kg/ha; for pest or weed control at 125 g/ha: 0.125 kg/ha; for pest or weed control at 500 g/ha: 0.500 kg/ha
Source text: as §1, §2

[6] = 3 Leaf, read-out: Herbicidal activity, ORYSA (3 Leaf)
[7] = seed, read-out: Herbicidal activity, ORYSA (seed)

| SMILES | plant injury at 2 g/ha [1, 6] [%] | plant injury at 8 g/ha [1, 6] [%] | plant injury at 31 g/ha [1, 6] [%] | plant injury at 125 g/ha [1, 6] [%] | plant injury at 500 g/ha [1, 6] [%] | plant injury at 2 g/ha [1, 7] [%] | plant injury at 8 g/ha [1, 7] [%] | plant injury at 31 g/ha [1, 7] [%] | plant injury at 125 g/ha [1, 7] [%] | plant injury at 500 g/ha [1, 7] [%] | pest or weed control at 2 g/ha [2] [%] | pest or weed control at 8 g/ha [2] [%] | pest or weed control at 31 g/ha [2] [%] | pest or weed control at 125 g/ha [2] [%] | pest or weed control at 500 g/ha [2] [%] | pest or weed control at 2 g/ha [3] [%] | pest or weed control at 8 g/ha [3] [%] | pest or weed control at 31 g/ha [3] [%] | pest or weed control at 125 g/ha [3] [%] | pest or weed control at 500 g/ha [3] [%] | also measured |
| --- | --- | --- | --- | --- | --- | --- | --- | --- | --- | --- | --- | --- | --- | --- | --- | --- | --- | --- | --- | --- | --- |
| C=C(Cl)CON=C(CC)C1=C(O)CC(c2c(C)c(C)c3c(c2C)CC(C)(CC)C3)CC1=O (stereo not drawn) [Compound 15] | 0 | 0 | 0 | 0 | 30 | 0 | 0 | 0 | 40 | 100 | 0 | 30 | 30 | 100 | 100 | 0 | 0 | 0 | 0 | 0 | pest or weed control at 2 g/ha [4]: 0%; pest or weed control at 8 g/ha [4]: 0%; pest or weed control at 31 g/ha [4]: 0%; pest or weed control at 125 g/ha [4]: 0%; pest or weed control at 500 g/ha [4]: 30%; pest or weed control at 2 g/ha [5]: 0%; pest or weed control at 8 g/ha [5]: 0%; pest or weed control at 31 g/ha [5]: 0%; pest or weed control at 125 g/ha [5]: 0%; pest or weed control at 500 g/ha [5]: 0% |
| CCCC(=NOC)C1=C(O)CC(c2c(C)c(C)c3c(c2C)CC(C)(CC)C3)CC1=O (stereo not drawn) [Compound 16] | 0 | 0 | 0 | 0 | 30 | 0 | 0 | 30 | 100 | 100 | 0 | 30 | 70 | 100 | 100 | 0 | 0 | 0 | 0 | 0 | pest or weed control at 2 g/ha [4]: 0%; pest or weed control at 8 g/ha [4]: 0%; pest or weed control at 31 g/ha [4]: 30%; pest or weed control at 125 g/ha [4]: 50%; pest or weed control at 500 g/ha [4]: 50%; pest or weed control at 2 g/ha [5]: 0%; pest or weed control at 8 g/ha [5]: 0%; pest or weed control at 31 g/ha [5]: 0%; pest or weed control at 125 g/ha [5]: 0%; pest or weed control at 500 g/ha [5]: 30% |
| C=CCON=C(CCC)C1=C(O)CC(c2c(C)c(C)c3c(c2C)CC(C)(CC)C3)CC1=O (stereo not drawn) [Compound 18] | 0 | 0 | 0 | 0 | 0 | 0 | 0 | 0 | 30 | 100 | 0 | 30 | 70 | 100 | 100 | 0 | 0 | 0 | 0 | 0 | pest or weed control at 2 g/ha [4]: 0%; pest or weed control at 8 g/ha [4]: 0%; pest or weed control at 31 g/ha [4]: 0%; pest or weed control at 125 g/ha [4]: 0%; pest or weed control at 500 g/ha [4]: 0%; pest or weed control at 2 g/ha [5]: 0%; pest or weed control at 8 g/ha [5]: 0%; pest or weed control at 31 g/ha [5]: 0%; pest or weed control at 125 g/ha [5]: 0%; pest or weed control at 500 g/ha [5]: 0% |
| CCCC(=NOCC=CCl)C1=C(O)CC(c2c(C)c(C)c3c(c2C)CC(C)(CC)C3)CC1=O (stereo not drawn) [Compound 19] | 0 | 0 | 0 | 0 | 0 | 0 | 0 | 0 | 0 | 30 | 0 | 50 | 80 | 100 | 100 | 0 | 0 | 0 | 0 | 0 | pest or weed control at 2 g/ha [4]: 0%; pest or weed control at 8 g/ha [4]: 0%; pest or weed control at 31 g/ha [4]: 0%; pest or weed control at 125 g/ha [4]: 0%; pest or weed control at 500 g/ha [4]: 0%; pest or weed control at 2 g/ha [5]: 0%; pest or weed control at 8 g/ha [5]: 0%; pest or weed control at 31 g/ha [5]: 0%; pest or weed control at 125 g/ha [5]: 0%; pest or weed control at 500 g/ha [5]: 0% |
